In patent US5795907A, “Gastin and CCK receptor ligands” (James Black Foundation Limited, priority 1994, dated 1998):

Assays:
[1] = molecular target: T1, CCKB receptor (Mus musculus, UniProt P56481); assay: CCKB receptor radioligand binding assay in mouse cortical membranes ([125I]-CCK8S); details: [125I]-CCK8S 200 pM, 150 min at 21±3°; for Ki: read-out: CCKB pKi (converted)
T1 construct: The cortex was dissected, weighed and homogenised in 40ml ice-cold buffer; tissue Charles River (supplier of the CD1 mice); host or cells: cerebral cortex membranes of male CD1 mice
T1 sequence (P56481 1-453): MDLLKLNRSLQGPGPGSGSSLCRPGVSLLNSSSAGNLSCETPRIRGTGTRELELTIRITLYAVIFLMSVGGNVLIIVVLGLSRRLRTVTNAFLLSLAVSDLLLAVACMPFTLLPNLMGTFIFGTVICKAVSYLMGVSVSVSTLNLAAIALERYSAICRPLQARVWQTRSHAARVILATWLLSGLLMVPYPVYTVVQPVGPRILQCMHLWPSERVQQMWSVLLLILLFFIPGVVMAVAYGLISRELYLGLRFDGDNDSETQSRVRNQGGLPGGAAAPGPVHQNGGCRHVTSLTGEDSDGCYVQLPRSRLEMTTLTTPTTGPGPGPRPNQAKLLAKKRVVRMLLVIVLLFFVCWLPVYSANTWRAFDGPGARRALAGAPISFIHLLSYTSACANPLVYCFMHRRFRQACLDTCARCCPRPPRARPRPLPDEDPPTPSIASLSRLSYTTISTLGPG
Experimental: The compounds of the examples were tested for binding at the CCKB receptor in mouse cortical membranes by means of a radioligand binding assay. The procedure was as follows:
The whole brains from male mice (CD1 22-25 g; Charles River) were removed and placed in ice-cold buffer (pH7.2 @ 21±3°) of the following composition (mM); 10 HEPES, 130 NaCl, 4.7 KCl, 5 MgCl2, 1 EDTA and containing 0.25g.^-1 bacitracin. The cortex was dissected, weighed and homogenised in 40ml ice-cold buffer using a Teflon-in-glass homogeniser. The homogenate was centrifuged at 39,800g for 20 min at 4°, the supernatant discarded and the pellet resuspended by homogenisation in fresh buffer. The homogenate was recentrifuged (39,800 g; 20 min @ 4°) and the final pellet was resuspended in HEPES buffer to give a tissue concentration of 2 mg.ml^-1 (original wet weight).
The membranes ([…]) were incubated for 150 min at 21±3° in a final volume of 0.5 ml with HEPES buffer containing [^125 I]-CCK8S (0.05 ml; 200 pM NEN 2200 Ci.mmol^-1) and competing compound. Total and non-specific binding of [^125 I]-CCK8S were defined using 0.05 ml of buffer and 0.05 ml of […] L-365,260, respectively. The assay was terminated by rapid filtration through pre-soaked Whatman GF/B filters using a Brandell Cell harvester. The filters were washed (3×3 ml) with ice-cold 50 mM Tris-HCl (pH7.4 @ 4° C.) and bound radioactivity determined by counting (1 min.) in a gamma-counter.

[2] = molecular target: T2, CCKA (Cavia porcellus, UniProt Q63931); assay: CCKA radioligand binding assay in guinea-pig pancreas membranes ([125I]-CCK8(S)); details: PD134,308 present, 150 minutes at 21±3°; for Ki: read-out: CCKA pKi (converted)
T2 construct: The pancreatata were homogenised in 40 ml ice-cold HEPES buffer using a polytron; from tissue; host or cells: pancreas membranes of male Dunkin Hartley guinea-pigs
T2 sequence (Q63931 1-430): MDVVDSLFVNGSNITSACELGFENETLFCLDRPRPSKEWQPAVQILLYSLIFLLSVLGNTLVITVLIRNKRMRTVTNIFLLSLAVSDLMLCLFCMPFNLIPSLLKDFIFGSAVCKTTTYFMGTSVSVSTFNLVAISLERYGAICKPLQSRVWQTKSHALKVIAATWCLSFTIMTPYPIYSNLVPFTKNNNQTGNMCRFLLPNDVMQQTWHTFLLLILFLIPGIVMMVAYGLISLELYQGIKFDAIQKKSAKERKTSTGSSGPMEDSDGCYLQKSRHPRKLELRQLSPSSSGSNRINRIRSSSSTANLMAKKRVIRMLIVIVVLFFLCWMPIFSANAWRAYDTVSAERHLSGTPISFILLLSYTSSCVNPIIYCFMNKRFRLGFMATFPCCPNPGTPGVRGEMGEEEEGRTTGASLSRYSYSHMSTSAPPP
Experimental: The compounds of the examples were also tested in a CCKA as follows:
The pancreatata were removed from male guinea-pigs (200-300 g; Dunkin Hartley) and placed in ice-cold HEPES buffer (pH 7.2 @ 21 ±3). The pancreatata were homogenised in 40 ml ice-cold HEPES buffer using a polytron (Brinkmann, PT10, setting 10) 4×1 second. The homogenate was centrifuged at 39,800 g for 15 min at 4°. The supernatant was discarded and the pellet re-suspended using a Teflon-in-glass homogeniser in 20 volumes of fresh buffer and re-centrifuged as above.
The final pellet was re-suspended using a Teflon-in-glass homogeniser to a tissue concentration of 1 mg.ml^-1 (original wet weight), and filtered through 500 μm pore-size Nytex mesh.
The membranes (400 μl; containing 0.375 μM PD134,308) are incubated for 150 minutes at 21±3° in a final volume of 0.5 ml with HEPES buffer containing [^125 I]-CCK8 (S) (50 μl; […]) and competing compound. Total and non-specific binding of [^125 I]-CCK8 (S) are defined using 50 μl of buffer and 50 μl of 100 nM L-364,718 respectively. The assay is terminated by rapid filtration through pre-soaked Whatman GF/B filters using a Brandell Cell Harvester. The filters were washed (3×3 ml) with ice-cold 50 mM Tris HCl (pH 7.4 at 4°) and bound radioactivity is determined by counting (1 min) in a gamma counter.

Question: With `COC(=O)[C@@H]1CCCN1C(=O)c1cc2ccccc2cc1C(=O)NCC12CC3CC(CC(C3)C1)C2` [Example 6, 2-(2S-methoxycarbonylpyrrolidino-carbonyl)-3-(1-adamantanemethylaminocarbonyl)-naphthalene] as the compound, how does the Ki [1] read?
Answer: 1 µM

Question: What about the Ki [2] of the same compound?
Answer: 2.51 µM

Question: Which “CCKB pKi” value [1] does the source give for `CC(=O)NS(=O)(=O)c1cccc(NC(=O)[C@H](Cc2ccccc2)NC(=O)c2cc3cc[nH]c3cc2C(=O)NCC23CC4CC(CC(C4)C2)C3)c1` [Example 138, 5-(1S-(3-acetylaminosulphonylphenylaminocarbonyl)-2-phenylethylaminocarbonyl)-6-(1-adamantanemethylaminocarbonyl)-indole] here?
Answer: 8.1

Question: With `O=C(O)c1cc(NC(=O)[C@H](Cc2ccccc2)NC(=O)c2cc3[nH]cnc3cc2C(=O)NCc2ccc3ccccc3c2)cc(C(=O)O)c1` [Example 130, 5-(1S-(3,5-dicarboxyphenylaminocarbonyl)-2-phenylethylaminocarbonyl)-6-(2-naphthalenenemethylaminocarbonyl)-benzimidazole] as the compound, how does the Ki [1] read?
Answer: 0.0251 µM

Question: What about the Ki [2] of the same compound?
Answer: 3.98 µM

Question: What does the source list for `O=C(NCC12CC3CC(CC(C3)C1)C2)c1cc2nc[nH]c2cc1C(=O)N[C@@H](Cc1ccccc1)C(=O)Nc1ccc(F)cc1` [Example 68, 5-(1S-(4-fluorophenylaminocarbonyl)-2-phenylethylaminocarbonyl)-6-(1-adamantanemethylaminocarbonyl)-benzimidazole]?
Answer: Ki [1]: 1.26 µM; Ki [2]: 1.26 µM

Question: What does the source list for `O=C(NCC12CC3CC(CC(C3)C1)C2)c1cc2[nH]ccc2cc1C(=O)N[C@@H](Cc1ccccc1)C(=O)Nc1cccc(NS(=O)(=O)C(F)(F)F)c1` [Example 102, 5-(1S-(3-trifluoromethylsulphonylaminophenylaminocarbonyl)-2-phenylethylaminocarbonyl)-6-(1-adamantanemethylaminocarbonyl)-indole]?
Answer: CCKB pKi [1]: 7.4; CCKA pKi [2]: 5.9

Question: How did the Ki [1] turn out when `O=C(NCC12CC3CC(CC(C3)C1)C2)c1cc2cc[nH]c2cc1C(=O)N[C@@H](Cc1ccccc1F)C(=O)Nc1cc(-c2nn[nH]n2)cc(-c2nn[nH]n2)c1` [Example 98, 6-(1S-(3,5-ditetrazolylphenylaminocarbonyl)-2-(2-fluorophenyl)ethylaminocarbonyl)-5-(1-adamantanemethylaminocarbonyl)-indole] was run?
Answer: 0.00398 µM

Question: And the Ki [2]?
Answer: 0.2 µM

Question: With “5-(1S-(3,5-diethoxycarbonylphenylaminocarbonyl)-2-phenylethylaminocarbonyl)-6-(1-adamantanemethylaminocarbonyl)-indole and regioisomer with substituents at positions 5 and 6 reversed [Example 66]” as the compound, how does the “CCKB pKi” value [1] read?
Answer: 5.8

Question: What about the “CCKA pKi” value [2] of the same compound?
Answer: 5.0

Question: How did the Ki [1] turn out when `CCCCc1nc2cc(C(=O)NCC34CC5CC(CC(C5)C3)C4)c(C(=O)N[C@@H](Cc3ccccc3)C(=O)Nc3cc(C(=O)O)cc(C(=O)O)c3)cc2[nH]1` [Example 114, 5-(1S-(3,5-dicarboxyphenylaminocarbonyl)-2-phenylethylaminocarbonyl)-6-(1-adamantanemethylaminocarbonyl)-2-n-butylbenzimidazole] was run?
Answer: 1 µM

Question: What about the Ki [2] of the same compound?
Answer: 3.16 µM

Question: Which Ki [1] does the source give for `O=C(O[C@H]1CO[C@@H](c2ccccc2)OC1)c1cc(NC(=O)[C@H](Cc2ccccc2)NC(=O)c2cc3cc[nH]c3cc2C(=O)NCC23CC4CC(CC(C4)C2)C3)cc(C(=O)O[C@H]2CO[C@@H](c3ccccc3)OC2)c1` [Example 106, 5-(1S-(3,5-di-(cis-4-phenyl-3,5-dioxacyclohexaneoxycarbonyl)-phenylaminocarbonyl)-2-phenylethylaminocarbonyl)-6-(1-adamantanemethyl-aminocarbonyl)-indole] here?
Answer: 2 µM

Question: For `O=C(NCC12CC3CC(CC(C3)C1)C2)c1cc2cc[nH]c2cc1C(=O)N[C@@H](Cc1ccccc1)C(=O)Nc1cccc(-c2nn[nH]n2)c1` [Example 101, 6-(1S-(3-tetrazolylphenylaminocarbonyl)-2-phenylethylaminocarbonyl)-5-(1-adamantanemethylaminocarbonyl)-indole], which Ki [1] is on record?
Answer: 0.0398 µM

Question: What about the Ki [2] of the same compound?
Answer: 0.251 µM

Question: How did the Ki [1] turn out when `Nc1ccc(C[C@H](NC(=O)c2cc3[nH]cnc3cc2C(=O)NCC23CC4CC(CC(C4)C2)C3)C(=O)Nc2cc(C(=O)O)cc(C(=O)O)c2)cc1` [Example 64, 5-(1S-(3,5-dicarboxyphenylaminocarbonyl)-2-(4-aminophenyl)-ethylaminocarbonyl)-6-(1-adamantanemethylaminocarbonyl)-benzimidazole] was run?
Answer: 0.0631 µM

Question: For `COC(=O)c1cc(NC(=O)[C@H](Cc2ccccc2)NC(=O)c2cc3ccccc3cc2C(=O)NCC23CC4CC(CC(C4)C2)C3)cc(C(=O)O)c1` [Example 18, 2-(1S-(3-methoxycarbonyl-5-carboxyphenylaminocarbonyl)-2-phenylethylaminocarbonyl)-3-(1-adamantanemethylaminocarbonyl)-naphthalene], which Ki [2] is on record?
Answer: 0.501 µM

Question: With `CC(C)(C)C(=O)OCOC(=O)c1cc(NC(=O)[C@H](Cc2ccccc2)NC(=O)c2cc3ccoc3cc2C(=O)NCC23CC4CC(CC(C4)C2)C3)cc(C(=O)OCOC(=O)C(C)(C)C)c1` [Example 121, 5-(1S-(3,5-di-t-butylcarbonyloxymethyloxycarbonylphenylaminocarbonyl)-2-phenylethylaminocarbonyl)-6-(1-adamantanemethylaminocarbonyl)-benzofuran] as the compound, how does the “CCKA pKi” value [2] read?
Answer: 5.1

Question: For `COC(=O)c1cc(NC(=O)[C@H](Cc2ccccc2)NC(=O)c2cc3ccccc3cc2C(=O)NCC23CC4CC(CC(C4)C2)C3)cc(C(=O)OC)c1` [Example 17, 2-(1S-(3,5-dimethoxycarbonyl-phenylamino-carbonyl)-2-phenylethylaminocarbonyl)-3-(1-adamantanemethylaminocarbonyl)-naphthalene], which Ki [2] is on record?
Answer: 15.8 µM

Question: With `O=C(O)c1cc(NC(=O)[C@H](Cc2ccccc2)NC(=O)c2cc3cc[nH]c3cc2C(=O)NCC2CCC(O)CC2)cc(C(=O)O)c1` (single isomer, unassigned) [Example 110, 5-(1S-(3,5-dicarboxyphenylaminocarbonyl)-2-phenylethylaminocarbonyl)-6-(4-hydroxycyclohexanemethylaminocarbonyl)-indole] as the compound, how does the Ki [1] read?
Answer: 0.398 µM

Question: With “5-(1S-(3,5-diaminophenylaminocarbonyl)-2-phenylethylaminocarbonyl)-6-(1-adamantanemethyl-N-methylaminocarbonyl)-indole and regioisomer with substituents at positions 5 and 6 reversed [Example 43]” as the compound, how does the “CCKB pKi” value [1] read?
Answer: 5.8
